# ChEMBL document CHEMBL5724914, “Linking interpersonal differences in gut microbiota composition and drug biotransformation activity” (2024)
# Assays:
# [1] = human gut metagenome, 24 h, 2 µM
# [2] = human gut metagenome, 24 h, 2 µM; remark: listed apart in the source
# [3] = human gut metagenome, 24 h, 2 µM; remark: listed apart in the source
# [4] = The drug is tested on Z-017 corresponding to mouse gut metagenome with ENA study accession number: PRJEB37062 and ENA sample accession number: ERS12561816 for biotransformation under anaerobic condition. The drug concentrations were measured over 9 timepoints collected between 0 and 24 hours of incubation by liquid-chromatography-coupled mass spectrometry (LC–MS); details: 2 µM
# [5] = The drug is tested on Z-019 corresponding to rat gut metagenome with ENA study accession number: PRJEB37062 and ENA sample accession number: ERS12561818 for biotransformation under anaerobic condition. The drug concentrations were measured over 9 timepoints collected between 0 and 24 hours of incubation by liquid-chromatography-coupled mass spectrometry (LC–MS); details: 2 µM
# [6] = human gut metagenome, 24 h, 2 µM; remark: listed apart in the source
# [7] = human gut metagenome, 24 h, 2 µM; remark: listed apart in the source
# [8] = The drug is tested on Z-007 corresponding to rat gut metagenome with ENA study accession number: PRJEB37062 and ENA sample accession number: ERS12561807 for biotransformation under anaerobic condition. The drug concentrations were measured over 9 timepoints collected between 0 and 24 hours of incubation by liquid-chromatography-coupled mass spectrometry (LC–MS); details: 2 µM
# [9] = human gut metagenome, 24 h, 2 µM; remark: listed apart in the source
# [10] = The drug is tested on WLS-240 corresponding to human gut metagenome with ENA study accession number: PRJEB37062 and ENA sample accession number: ERS12561773 for biotransformation under anaerobic condition. The drug concentrations were measured over 9 timepoints collected between 0 and 24 hours of incubation by liquid-chromatography-coupled mass spectrometry (LC–MS); details: 2 µM
# [11] = human gut metagenome, 24 h, 2 µM; remark: listed apart in the source
# [12] = human gut metagenome, 24 h, 2 µM; remark: listed apart in the source
# [13] = The drug is tested on WLS-073 corresponding to human gut metagenome with ENA study accession number: PRJEB37062 and ENA sample accession number: ERS12561749 for biotransformation under anaerobic condition. The drug concentrations were measured over 9 timepoints collected between 0 and 24 hours of incubation by liquid-chromatography-coupled mass spectrometry (LC–MS); details: 2 µM
# [14] = The drug is tested on Z-002 corresponding to rabbit gut metagenome with ENA study accession number: PRJEB37062 and ENA sample accession number: ERS12561802 for biotransformation under anaerobic condition. The drug concentrations were measured over 9 timepoints collected between 0 and 24 hours of incubation by liquid-chromatography-coupled mass spectrometry (LC–MS); details: 2 µM
# [15] = The drug is tested on WLS-098 corresponding to human gut metagenome with ENA study accession number: PRJEB37062 and ENA sample accession number: ERS12561754 for biotransformation under anaerobic condition. The drug concentrations were measured over 9 timepoints collected between 0 and 24 hours of incubation by liquid-chromatography-coupled mass spectrometry (LC–MS); details: 2 µM
# [16] = The drug is tested on WLS-069 corresponding to human gut metagenome with ENA study accession number: PRJEB37062 and ENA sample accession number: ERS12561748 for biotransformation under anaerobic condition. The drug concentrations were measured over 9 timepoints collected between 0 and 24 hours of incubation by liquid-chromatography-coupled mass spectrometry (LC–MS); details: 2 µM
# [17] = human gut metagenome, 24 h, 2 µM; remark: listed apart in the source
# [18] = The drug is tested on Z-003 corresponding to pig gut metagenome with ENA study accession number: PRJEB37062 and ENA sample accession number: ERS12561803 for biotransformation under anaerobic condition. The drug concentrations were measured over 9 timepoints collected between 0 and 24 hours of incubation by liquid-chromatography-coupled mass spectrometry (LC–MS); details: 2 µM
# [19] = human gut metagenome, 24 h, 2 µM; remark: listed apart in the source
# [20] = human gut metagenome, 24 h, 2 µM; remark: listed apart in the source
# Also: call rule not given here.
Compound,Bacterial Biotransformation [1],Bacterial Biotransformation [2],Bacterial Biotransformation [3],Bacterial Biotransformation [4],Bacterial Biotransformation [5],Bacterial Biotransformation [6],Bacterial Biotransformation [7],Bacterial Biotransformation [8],Bacterial Biotransformation [9],Bacterial Biotransformation [10],Bacterial Biotransformation [11],Bacterial Biotransformation [12],Bacterial Biotransformation [13],Bacterial Biotransformation [14],Bacterial Biotransformation [15],Bacterial Biotransformation [16],Bacterial Biotransformation [17],Bacterial Biotransformation [18],Bacterial Biotransformation [19],Bacterial Biotransformation [20]
Nc1nnc(-c2cccc(Cl)c2Cl)c(N)n1 [LAMOTRIGINE],Compound NOT metabolized,Compound NOT metabolized,Compound metabolized,Compound NOT metabolized,Compound NOT metabolized,Compound NOT metabolized,Compound NOT metabolized,Compound NOT metabolized,Compound metabolized,Compound metabolized,Compound metabolized,Compound NOT metabolized,Compound NOT metabolized,Compound NOT metabolized,Compound metabolized,Compound NOT metabolized,Compound metabolized,Compound NOT metabolized,Compound NOT metabolized,Compound NOT metabolized
OC(c1cc(C(F)(F)F)nc2c(C(F)(F)F)cccc12)C1CCCCN1 (stereo not given) [MEFLOQUINE],Compound metabolized,Compound metabolized,Compound metabolized,Compound NOT metabolized,Compound NOT metabolized,Compound metabolized,Compound NOT metabolized,Compound NOT metabolized,Compound metabolized,Compound metabolized,Compound metabolized,Compound metabolized,Compound metabolized,Compound metabolized,Compound NOT metabolized,Compound metabolized,Compound metabolized,Compound metabolized,Compound metabolized,Compound metabolized
CC[C@@]1(O)C(=O)OCc2c1cc1n(c2=O)Cc2cc3c(CN(C)C)c(O)ccc3nc2-1 [TOPOTECAN],Compound NOT metabolized,Compound NOT metabolized,Compound NOT metabolized,Compound NOT metabolized,Compound NOT metabolized,Compound NOT metabolized,Compound NOT metabolized,Compound NOT metabolized,Compound NOT metabolized,Compound NOT metabolized,Compound NOT metabolized,Compound NOT metabolized,Compound NOT metabolized,Compound NOT metabolized,Compound NOT metabolized,Compound NOT metabolized,Compound NOT metabolized,Compound NOT metabolized,Compound NOT metabolized,Compound NOT metabolized
O=C1CN2Cc3c(ccc(Cl)c3Cl)N=C2N1 [ANAGRELIDE],Compound NOT metabolized,Compound metabolized,Compound metabolized,Compound NOT metabolized,Compound NOT metabolized,Compound NOT metabolized,Compound NOT metabolized,Compound NOT metabolized,Compound metabolized,Compound metabolized,Compound metabolized,Compound metabolized,Compound NOT metabolized,Compound NOT metabolized,Compound metabolized,Compound metabolized,Compound metabolized,Compound NOT metabolized,Compound NOT metabolized,Compound metabolized
CN(C)C(=O)Oc1cccc([N+](C)(C)C)c1.[Br-] [NEOSTIGMINE BROMIDE],Compound NOT metabolized,Compound NOT metabolized,Compound NOT metabolized,Compound NOT metabolized,Compound NOT metabolized,Compound NOT metabolized,Compound NOT metabolized,Compound NOT metabolized,Compound NOT metabolized,Compound NOT metabolized,Compound NOT metabolized,Compound NOT metabolized,Compound NOT metabolized,Compound metabolized,Compound NOT metabolized,Compound NOT metabolized,Compound NOT metabolized,Compound metabolized,Compound NOT metabolized,Compound NOT metabolized
